Experimental findings from PubChem BioAssay AID1996 are described below.

Structures are written as SMILES. Values after ≈ are worked out from the molar mass of the structure shown.

For the data set the following is noted: buffer; pH 7.4; 200.0 µM.
What is called solubility (kinetic) is solubility judged after dilution from a stock solution rather than from solid. Consider `O=C(Cc1cccs1)NC(Cc1c[nH]c2ccccc12)C(=O)O` (stereo not given), for which the kinetic solubility is > 49.3 µg/mL.
The molecule `O=C1CCC(=O)N1Cc1c(Cl)cccc1Cl` yielded a solubility (kinetic) of 35.5 µg/mL (≈ 138 µM).
The same measure for `CC(C)(C)NC(=O)CSc1nc(N)cc(=O)[nH]1`: > 38.4 µg/mL; for `Cc1cccc(C(=O)OCC(=O)NCC(C)C)c1O`: 13.6 µg/mL (≈ 51.3 µM).
As to `CC(=O)c1cn(C)c(=O)c2ccccc12`, the solubility (kinetic) was > 30.2 µg/mL.
The same measure for `CCOC(=O)N1CCC(NC(=O)CCCC(=O)O)CC1`: > 42.9 µg/mL; for `Cn1ccnc1SCC(=O)c1ccc(C#N)cc1`: > 38.6 µg/mL; for `Cc1ccc(NC(=O)c2cncc(Br)c2)nc1`: 28.1 µg/mL (≈ 96.2 µM).
`Cc1nc(-c2ccccc2OC(F)(F)F)[nH]c(=O)c1Cl` returned a kinetic solubility of 43.2 µg/mL (≈ 142 µM).
`COc1ccc(C(=O)NC(=S)N(C)C2CCCCC2)cc1` had a kinetic solubility of 5.5 µg/mL (≈ 17.9 µM).
As to `CN(Cc1ccccc1)C(=O)N1CCOCC1`, the kinetic solubility was > 35.1 µg/mL.
With `CN1CCCN(C(=O)c2cccc(Cl)c2)CC1`, the kinetic solubility was > 37.9 µg/mL.
As for `CC1CN(CC(=O)NC(C)c2ccccc2)CC(C)O1` (stereo not given), the kinetic solubility is > 41.5 µg/mL.
On to `CN(C)CCCNC(=O)N1c2ccccc2Sc2ccccc21`, for which the solubility (kinetic) was > 49.1 µg/mL.
The same measure for `COc1ccc(C)cc1NC(=O)CN1CCCC1c1ccc2c(c1)OCCCO2` (stereo not given): 13.6 µg/mL (≈ 34.3 µM); for `CN1CC(C(=O)c2ccc(Cl)cc2)C(c2ccccc2)C1` (stereo not given): 40.1 µg/mL (≈ 134 µM).
As for `Cc1cc(C)cc(OCC(=O)N2CCc3ccccc3C2)c1`, the solubility (kinetic) is 31.5 µg/mL (≈ 107 µM).
The molecule `O=C(Cn1c(=O)oc2ccccc21)Nc1ccc(F)c(F)c1` came in with a kinetic solubility of 7.9 µg/mL (≈ 26 µM).
`O=S(=O)(Nc1ccccc1)c1ccc2c(c1)CCO2` returned a solubility (kinetic) of 37.7 µg/mL (≈ 137 µM).
To `O=C(Nc1cnccc1C(F)(F)F)NC1CCCCC1` belongs 43.1 µg/mL (≈ 150 µM).
In the case of `ONC(=Nc1cccc(C(F)(F)F)c1)c1cccnc1`, the kinetic solubility is > 42.2 µg/mL.
The same measure for `CCCCN(C(=O)C1COc2ccccc2O1)c1c(N)n(CCC)c(=O)[nH]c1=O` (stereo not given): > 60.4 µg/mL; for `COc1ccccc1NC(=S)N1CCn2cccc2C1c1cccnc1` (stereo not given): 42.2 µg/mL (≈ 116 µM); for `CC(=O)OCc1ccccc1Sc1ccccc1C(=O)NCc1ccccc1`: 21.1 µg/mL (≈ 53.9 µM).
On to `COc1ccc(CNC(=O)COc2ccc(F)cc2)cc1`, for which the solubility (kinetic) is > 43.4 µg/mL.
The molecule `CCOc1ccc(NC(=O)CN(C)C(=O)c2ccc(C)o2)cc1OCC` came in with a solubility (kinetic) of 52.5 µg/mL (≈ 146 µM).
In turn, `COc1cccc(Nc2ncc(C#N)c(N)n2)c1` had a solubility (kinetic) of 31.9 µg/mL (≈ 132 µM).
The same measure for `CC(=O)N/C(=N\c1nc(C)cc(C)n1)Nc1ccc2ccccc2c1`: 0.5 µg/mL (≈ 1.5 µM); for `COc1ccc(OC)c(NC(=O)COC(=O)CCNc2ccccc2OC)c1`: 40.8 µg/mL (≈ 105 µM).
On to `Cc1cccc(C)c1NC(=O)COC(=O)c1cccnc1`, for which the kinetic solubility is > 42.6 µg/mL.
To `Cc1cc(/C=C2\NC(=O)NC2=O)c(C)n1-c1cccnc1` belongs 40.2 µg/mL (≈ 142 µM).
To `Cc1cc(C)c(C(=O)Nn2c(C)nc3ccccc3c2=O)cc1C` belongs > 48.2 µg/mL.
As for `CC(C)(C)C(=O)Nc1cc(NC(=O)C(C)(C)C)cc(C(=O)Nc2c[nH]c(=O)[nH]c2=O)c1`, the kinetic solubility was 45.3 µg/mL (≈ 105 µM).
To `CCCn1c(SCC(=O)NC2CCC(C)CC2)n[nH]c1=O` (stereo not given) belongs > 46.9 µg/mL.
As for `O=C(COC(=O)c1ccc([N+](=O)[O-])o1)NCc1ccccc1`, the solubility (kinetic) is > 45.6 µg/mL.
To `CC(C)c1ccc(C(C)NC(=O)C2CCCC2)cc1` (stereo not given) belongs 2.6 µg/mL (≈ 10 µM); to `CCOc1ccccc1NC(=O)C(=O)NCCC1=CCCCC1`, < 0.3 µg/mL; to `N#Cc1ccncc1Sc1ccc(Cl)cc1`, 25.3 µg/mL (≈ 103 µM).
`CC1(C(=O)OCC(=O)NCc2ccc(Cl)cc2)CC1(Cl)Cl` (stereo not given): the kinetic solubility was found to be 52.5 µg/mL (≈ 150 µM).
On to `Fc1ccc(N2CCN(C3CCC(c4ccccc4)CC3)CC2)cc1` (stereo not given), for which the solubility (kinetic) worked out at 1.1 µg/mL (≈ 3.25 µM).
For `COc1cc(Nc2ncnc(N)n2)cc(OC)c1OC`, the solubility (kinetic) is > 41.6 µg/mL.
`CSc1nc2c(cc1C#N)C(=O)CC(C)(C)C2` gave a solubility (kinetic) of 10.3 µg/mL (≈ 41.8 µM).
As to `Cc1ccc(S(=O)(=O)N2CC=C(C(=O)NC3CC3)CC2)cc1`, the solubility (kinetic) is 40.5 µg/mL (≈ 126 µM).
For the molecule `O=C1CN(c2ccccc2)C(=S)N1c1ccccc1.[Na+]`, the kinetic solubility came to 7.4 µg/mL.
Take `CC(C)(C)SCCNC(=O)CN1C(=O)c2cccc3cccc1c23`: the solubility (kinetic) was determined as 2.8 µg/mL (≈ 8.18 µM).
On to `CN(C)CCCCOc1ccccc1F.O=C(O)C(=O)O`, for which the kinetic solubility came out at 17.2 µg/mL. This solubility kinetic lies about 6.1-fold higher than the previous one.
With `O=C(CN1CCN(C(=O)c2ccccc2)CC1)NC(=O)NCCC1=CCCCC1`, the solubility (kinetic) was > 59.8 µg/mL.
`COCCCNC(=O)c1cc(S(=O)(=O)NCCCN2CCCC2=O)ccc1Cl`: the solubility (kinetic) was > 64.8 µg/mL.
To `Cc1ccc(S(=O)(=O)NCC(=O)OCC(=O)N2CC(=O)Nc3ccccc32)cc1` belongs > 62.6 µg/mL; to `COCCNC(=O)c1ccc2c(c1)C(=O)c1ccccc1-2`, > 42.2 µg/mL; to `CC(C)(C)c1ccc(C(=O)Nc2cccnc2)cc1`, 28 µg/mL (≈ 110 µM).
The same measure for `S=C1NCN(Cc2ccco2)CN1`: > 29.6 µg/mL; for `CCOP(=O)(c1ccc(N(C)C)cc1)C(O)c1ccccc1F` (stereo not given): > 50.6 µg/mL.
`CC(C)Cc1ccc(S(=O)(=O)NCC2CCCO2)cc1` (stereo not given) had a kinetic solubility of 33.6 µg/mL (≈ 113 µM).
Turning to `O=C(O)c1ccccc1NCCO`, the solubility (kinetic) worked out at 24 µg/mL (≈ 132 µM).
Take `Cc1nc2ccc(NC(=O)c3cnc(Cl)c(Cl)c3)cc2s1`: the solubility (kinetic) was 0.3 µg/mL (≈ 0.887 µM).
To `CCOC(=O)c1csc(NC(=O)c2cc3ccccc3o2)n1` belongs 0.8 µg/mL (≈ 2.53 µM); to `COc1ccc2c(c1OC)C(=O)N(c1ccc(C)cc1)C2`, 3.2 µg/mL (≈ 11.3 µM).
Turning to `CN(C)CCCNc1nc(N)c([N+](=O)[O-])c(NC2CCCCC2)n1`, the solubility (kinetic) was > 50.6 µg/mL.
`Cc1cccc(OCC(=O)Nc2ccc3oc(=O)ccc3c2)c1` displayed a kinetic solubility of 3.3 µg/mL (≈ 10.7 µM).
`Cc1ccc(C)c(NC(=O)C[n+]2ccccc2)c1.[Cl-]` returned a solubility (kinetic) of 40.8 µg/mL.
Turning to `O=C1CCc2ccc(OCCCCN3CCN(c4cccc(Cl)c4Cl)CC3)cc2N1`, the kinetic solubility was < 0.3 µg/mL.
As to `COc1ccc(N2CCOCC2)c(NC(=O)c2cccnc2)c1`, the kinetic solubility was > 47 µg/mL.
In turn, `CC(Oc1ccccc1)C(=O)NC1CCSc2ccccc21` (stereo not given) had a solubility (kinetic) of 25.9 µg/mL (≈ 82.6 µM).
To `CCOc1ccccc1C1NC(=O)CCC1[N+](=O)[O-]` (stereo not given) belongs > 39.6 µg/mL; to `CC(=O)c1ccc(OCCCC(=O)Nc2cccc(S(=O)(=O)N3CCOCC3)c2)cc1`, 56 µg/mL (≈ 125 µM); to `CCOC(=O)Cn1c(=O)oc2cc(S(=O)(=O)NC(C)(C)CC)ccc21`, 53.8 µg/mL (≈ 145 µM).
Turning to `O=C(O)c1cn(-c2ccc(F)cc2)c2cc(Cl)c(F)cc2c1=O`, the kinetic solubility was > 50.4 µg/mL.
As to `CCN1CCN(C(=O)CSc2nc(N)cc(N)n2)CC1`, the kinetic solubility was > 44.5 µg/mL.
As to `Cc1nc2ccccn2c1C(=O)NN=C1CCN(C)CC1`, the solubility (kinetic) is > 42.8 µg/mL.
As for `Cc1cc(C)c(-c2nc3ccccc3s2)[nH]1`, the kinetic solubility worked out at 0.8 µg/mL (≈ 3.5 µM).
`Cc1ccc(/C=C/C(=O)OCC(=O)NC(=O)NCc2ccccc2)cc1` registered a kinetic solubility of 3.8 µg/mL (≈ 10.8 µM). Against the preceding molecule, the solubility kinetic is about 4.7-fold higher.
Molecule `CC(Sc1nccn1C)C(=O)c1ccc(Br)cc1` (stereo not given) displayed a kinetic solubility of 42.9 µg/mL (≈ 132 µM).
To `CSc1ccccc1C(=O)NCCOc1ccccc1C` belongs > 45.2 µg/mL.
With `O=C(CN1CCN(c2ccc([N+](=O)[O-])cc2)CC1)c1ccccc1`, the kinetic solubility is 22.5 µg/mL (≈ 69.2 µM).
